In patent publication EP0044527A1, “Substituted derivatives of benzyl triesters of cyclic adenosin-3',5'-phosphate, method for their preparation and pharmaceutical compositions containing them” (priority 1980, dated 1982):
pEC50: −log10 of the molar value. Read-outs that look alike come from different tables or passages of the source.

How the values were obtained:
[1] = test system: Trachealspangen-Kette des Meerschweinchens; assay: Relaxation of spontaneously contracted tracheal ring chain in vitro, relative to (-)isoprenaline maximum; format: cell-based, Meerschweinchen; settings: for pEC50: Cavia porcellus, Dosis der halbmaximal möglichen Relaxation, Relaxation relative to (-)Isoprenalin 10^-6 Mol/l, read-out: ED50 (the source's name); for Relative Wirkungsstärke (Theophyllin = 1,00): im Vergleich zu Theophyllin
Method: Weiterhin wurde die relaxierende Wirkung erfindungsgemäßer Verbindungen auf die Trachealspangen-Kette des Meerschweinchens in vitro geprüft: • Vier parallele, aus jeweils 6 Einzelringen bestehende Trachealspangen-Ketten des Meerschweinchens (♂ und $, 430 - 600 g) im Organbad (5 ml, Krebs-Henseleit-Lösung mit Zusatz von Phentolamin (10^-5 Mol/l, 37°C, Vorspannung der Organe 2 g, Begasung mit Carbogen) entwickeln nach etwa 20 bis 30 Minuten eine stabile, tonische Spontankontraktur. An diesen dauerkontrahierten Organen kann unter isometrischen Meßbedingungen durch Applikation der Prüfsubstanz in kumulativhalblogarithmisch ansteigender Konzentration (z.B. 1x10-^6 + 2x-10^-6 + 7x10^-6 + 2x10^-5 usw. Mol/l) eine Relaxation herbeigeführt werden, wobei nach jeder Einzeldosis der Testsubstanz eine konstante Relaxations-Antwort abgewartet wird, bevor die nächst höhere Konzentration appliziert wird. Ober einen Zeitraum von 20 bis 30 Minuten wird somit eine vollständige Dosis-Wirkungskurve der Testsubstanz erhalten. Die jeweilige Relaxation wird als Prozentbruchteil der durch Gabe von (-)Isoprenalin (10^-6 Mol/1) maximal erreichbaren Relaxation ausgedrückt.
In Tabelle IV sind die ED50 (Dosis der halbmaximal möglichen Relaxation) und die relative Wirkungsstärke im Vergleich zu Theophyllin für erfindungsgemäße Verbindungen angegeben.

[2] = test system: Papillarmuskeln aus dem rechten Ventrikel des Meerschweinchenherzens; assay: Positive inotropic effect on isolated papillary muscle, isometric force, with or without phosphodiesterase inhibitor; format: cell-based, Meerschweinchen; settings: for minimal effective concentration: read-out: Schwellenkonz.
Method: Zur Bestimmung positiv inotroper Wirkungen wurden Papillarmuskeln aus dem rechten Ventrikel des Meerschweinchenherzens verwendet. Die adrenergen Nervenendigungen waren frei von Noradrenalin (Katecholamin-Entspeicherung durch intraperitoneale Injektion von 5 mg/kg Reserpin 24 Stunden vor Präparation der Tiere). Die Aufhängung der Muskeln erfolgte an einem induktiven Kraftaufnehmer in einer mit Sauerstoff gesättigten physiologischen Nährlösung (Volumen 50 ml). Die Kraftregistrierung erfolgte isometrisch, Kontraktionskurven wurden mittels eines Tintenschreibers aufgezeichnet und dann analysiert. Vor Zugabe der Testsubstanz wurden die Muskeln bei konstanter Reizung (Frequenz 0,2 Hz, Reizdauer 1 ms) bis zum Erreichen eines stationären Zustands ("steady state") der Kraft in der Nährlösung äquilibriert. Die Konzentration der Testsubstanz wurde dann erhöht, wenn die Kraft innerhalb von 10 min nicht weiter zunahm.
In der folgenden Tabelle II sind die Konzentrationen der einzelnen Testsubstanzen aufgetragen, bei denen der positiv inotrope Effekt gerade erkennbar war (Schwellenkonzentration) oder 50 % der maximalen Kraftzunahme erreichte (EC50). Diese Werte wurden im unteren Teil der Tabelle denen bereits bekannter Testsubstanzen gegenübergestellt. Weiterhin werden Schwellenkonzentrationen und EC50-Werte für die aufgeführten Testsubstanzen in Anwesenheit des Phosphodiesterase-Hemmstoffs 1-Methyl-3-isobutylxanthin (IBMX) (2 x 10^-5 Mol/l) angegeben. Es resultiert eine Verschiebung zu 30 - 40-fach niedrigeren Konzentrationen im Vergleich zu den Werten ohne Phophodiesterase-Hemmstoff. Ein ähnlicher Synergismus wurde auch mit Papaverin (1 x 10^-5 Mol/l) und mit Theophyllin (3 x 10-^4 Mol/1) beobachtet.

[3] = Partition coefficient octanol/buffer pH 7.4 (lg P); format: physicochemical; settings: Octanol/Puffer
Description: Weitere physikalische Daten finden sich in der folgenden Tabelle I, die auch zusätzliche beispielhaft hergestellte erfindungsgemäße Verbindungen und deren physikalische Daten enthält. Dabei bedeutet P den Verteilungskoeffizienten Octanol/Puffer, pH 7,4: P = [formula]

[4] = test system: isolierte Trachealstreifen des Meerschweinchens; assay: Relaxation of isolated tracheal strips (smooth muscle of the respiratory tract); format: cell-based, Meerschweinchen; settings: Cavia porcellus, read-out: Abnahme der Muskelspannung (T) in % des Kontrollwertes
Description: Zur Bestimmung der erschlaffenden Wirkung von 8-CH3S-cAMP-OCH2C6H5 (Verbindung 2) auf die glatte Muskulatur des Respirationstraktes wurden isolierte Trachealstreifen des Meerschweinchens verwendet. Aufhängung der Präparate erfolgte wie bereits beschrieben. Nach Vorgabe einer geeigneten Testspannung (0,8 g) wurde die erschlaffende Wirkung der Testsubstanz in Abhängigkeit von der Konzentration getestet. Nach Auswaschen der Testsubstanz wurde der Versuch mit einem bereits bekannten cAMP-Derivat (Dibutyryl-cAMP, Vergleichsverbindung 1) wiederholt.

[5] = test system: isoliertes Meerschweinchen-Myokard; settings: Stand der Technik; cited from earlier work
[6] = 50 % der maximalen Kraftzunahme, in Anwesenheit von IBMX (2 x 10^-5 Mol/l), read-out: EC50 + 20 µMol IBMX
[7] = 50 % der maximalen Kraftzunahme, ohne IBMX, read-out: EC50
[8] = positiv inotroper Effekt gerade erkennbar, in Anwesenheit von IBMX (2 x 10^-5 Mol/l)
[9] = positiv inotroper Effekt gerade erkennbar, ohne IBMX
[10] = pH 7, Diastereomerengemisch, pH 7,4, read-out: lg P Gemisch
[11] = pH 7, Konfig. ax, pH 7,4, read-out: lg P
[12] = pH 7, Konfig. äq, pH 7,4, read-out: lg P
[13] = pH 7, Vergleichsverbindungen, pH 7,4, read-out: lg P - Werte

| Structure (SMILES) | pEC50 [2, 6] | pEC50 [2, 7] | Schwellenkonz. + 20 µMol IBMX [2, 8] [mol/L] | minimal effective concentration [2, 9] [µM] | logD [3, 10] | logD [3, 11] | logD [3, 12] | other results |
| --- | --- | --- | --- | --- | --- | --- | --- | --- |
| Cn1c(=O)c2[nH]cnc2n(C)c1=O [Theophyllin, reference compound] |  |  |  |  |  |  |  | pEC50 [1]: 3.89; Relative Wirkungsstärke (Theophyllin = 1,00) [1]: 1,00 |
| Nc1ncnc2c1nc(Br)n2[C@@H]1O[C@@H]2COP(=O)(OCc3ccccc3)O[C@H]2[C@H]1O (some centres unmarked) [Verbindung 1, 8-Brom-adenosin-3',5'-monophosphorsäurebenzylester] | 5.82 | 5.00 | 3e-07 | 3 | 1.58 | 1.61 | 1.54 | pEC50 [1]: 5.15; Relative Wirkungsstärke (Theophyllin = 1,00) [1]: 18,5 |
| CSc1nc2c(N)ncnc2n1[C@@H]1O[C@@H]2COP(=O)(OCc3ccccc3)O[C@H]2[C@H]1O (some centres unmarked) [Verbindung 2, 8-Methylthio-adenosin-3',5^1-monophosphorsäurebenzylester] |  |  | 1e-07 |  | 1.62 | 1.55 | 1.7 | inhibition at 1 µM [4]: 20%; inhibition at 3 µM [4]: 85%; inhibition at 10 µM [4]: 100%; inhibition at 30 µM [4]: 100%; pEC50 [2]: 5.00; pEC50 ([2]; read-out: EC50 + 20 µMol IBMX): 6.35; minimal effective concentration [2]: 3 µM |
| Nc1ncnc2c1nc(SCc1ccccc1)n2[C@@H]1O[C@@H]2COP(=O)(OCc3ccccc3)O[C@H]2[C@H]1O (some centres unmarked) [Verbindung 3, 8-Benzylthioadenosin-3',5'-monophosphorsäurebenzyltriester] | 6.22 | 4.70 | 1e-07 | 10 | 1.92 | 1.96 | 1.88 |  |
| Nc1ncnc2c1nc([Se]Cc1ccccc1)n2[C@@H]1O[C@@H]2COP(=O)(OCc3ccccc3)O[C@H]2[C@H]1O (some centres unmarked) [Verbindung 4, 8-Benzylseleno-adenosin-3',5'-monophosphorsäurebenzylester] |  |  | 1e-07 |  | 1.67 | 1.7 | 1.64 | pEC50 [2]: 5.00; pEC50 ([2]; read-out: EC50 + 20 µMol IBMX): 6.26; minimal effective concentration [2]: 3 µM |
| Nc1ncnc2c1nc(Sc1ccc(Cl)cc1)n2[C@@H]1O[C@@H]2COP(=O)(OCc3ccccc3)O[C@H]2[C@H]1O (some centres unmarked) [Verbindung 5, 8-(4-Chlor-phenylthio)-adenosin-3',5'-monophosphorsäurebenzylester] | 6.52 | 5.70 | 3e-08 | 0.1 | 2.24 |  |  | pEC50 [1]: 4.42; Relative Wirkungsstärke (Theophyllin = 1,00) [1]: 3,4 |
| Nc1ncnc2c1nc(NCc1ccccc1)n2[C@@H]1O[C@@H]2COP(=O)(OCc3ccccc3)O[C@H]2[C@H]1O (some centres unmarked) [Verbindung 6, 8-Benzylamino-adenosin-3^1,5^1-monophosphorsäurebenzylester] | 4.70 | 4.40 | 5e-06 | 10 | 1.97 |  |  |  |
| CN(Cc1ccccc1)c1nc2c(N)ncnc2n1[C@@H]1O[C@@H]2COP(=O)(OCc3ccccc3)O[C@H]2[C@H]1O (some centres unmarked) [Verbindung 7, 8-N-Benzyl-N-methylamino-adenosin-3',5'-monophosphorsäurebenzylester] |  |  |  |  | 2.29 |  |  |  |
| CCCC(=O)Nc1ncnc2c1ncn2[C@@H]1O[C@@H]2COP(=O)(O)O[C@H]2[C@H]1OC(=O)CCC [Vergleichs-verbindung 1, Dibutyryl-cAMP, reference compound] | 3.52 | 3.00 | 0.0001 | 300 |  |  |  | inhibition at 1000 µM ([4]; 1 x 10^-3 Mol/l): 75%; inhibition at 100 µM ([4]; 1 x 10^-4 Mol/l): 8%; inhibition at 300 µM ([4]; 3 x 10^-4 Mol/l): 16%; inotrope Wirkung (Nebenwirkung) [5]: anfangs negativ inotrope Wirkungen; logD [3, 13]: -1.1 |
| Nc1ncnc2c1nc(SCc1ccccc1)n2[C@@H]1O[C@@H]2COP(=O)(O)O[C@H]2[C@H]1O [compound 2, 8-Benzylthioadenosin-3',5'-phosphorsäure, reference compound] | 3.82 | 3.10 | 1e-05 | 100 |  |  |  | logD [3, 13]: -1.15 |
| Nc1ncnc2c1ncn2[C@@H]1O[C@@H]2COP(=O)(OCc3ccccc3)O[C@H]2[C@H]1O (some centres unmarked) [compound 3, Adenosin-3',5'-phosphorsäurebenzylester, reference compound] | 4.22 | 3.60 | 1e-05 | 100 |  |  |  | logD [3, 13]: 1.1 |
